The values that follow come from patent US6391595B1, “Transferase and amylase, process for producing the enzymes, use thereof, and gene coding for the same” (Kirin Beer Kabushiki Kaisha, priority 1994, dated 2002).

Test [1] concerns transferase derived from the Sulfolobus solfataricus strain KM1. In words: Influence of activators and inhibitors on glucosyltrehalose-producing activity. Type of test: biochemical.
Test [2] deals with T1, amylase derived from the Sulfolobus solfataricus strain KM1 (Saccharolobus solfataricus, UniProt Q55088).
T1 construct: endogenous in cells; host or cells: Sulfolobus solfataricus strain KM1 cells
T1 sequence (Q55088 1-559): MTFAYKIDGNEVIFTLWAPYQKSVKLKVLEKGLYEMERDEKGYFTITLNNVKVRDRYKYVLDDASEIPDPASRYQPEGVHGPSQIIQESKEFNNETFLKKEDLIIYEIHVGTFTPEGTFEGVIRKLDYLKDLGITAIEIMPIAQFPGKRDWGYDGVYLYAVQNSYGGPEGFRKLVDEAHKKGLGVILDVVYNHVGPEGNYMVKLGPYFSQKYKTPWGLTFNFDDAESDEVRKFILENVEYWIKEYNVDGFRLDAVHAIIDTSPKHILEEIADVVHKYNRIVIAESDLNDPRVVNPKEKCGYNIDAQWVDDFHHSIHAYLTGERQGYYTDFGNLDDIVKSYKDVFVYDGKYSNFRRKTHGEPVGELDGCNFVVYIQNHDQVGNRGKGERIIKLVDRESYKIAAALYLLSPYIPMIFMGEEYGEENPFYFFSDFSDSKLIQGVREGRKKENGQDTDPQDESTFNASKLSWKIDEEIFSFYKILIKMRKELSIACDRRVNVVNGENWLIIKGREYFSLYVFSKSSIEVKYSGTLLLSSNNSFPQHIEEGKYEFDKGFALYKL
In words: biochemical. Type of test: biochemical.

The subject of test [3] is debranching enzyme derived from the Sulfolobus solfataricus strain KM1. In words: Influence of activators and inhibitors on debranching enzyme activity. The test is classed as biochemical.
In test [4] the test system is transferase derived from the Sulfolobus acidocaldarius strain ATCC 33909. In words: Inhibitor of transferase (glucosyltrehalose-producing activity). Type of test: biochemical. To be noted: 5 mM CuSO4. Here is the method:
(§1) The influence of each substance listed in Table 8, such as an activating effect or inhibitory effect, was evaluated using similar activity-measuring method to that in Example I-1. Specifically, the listed substances were individually added together with the substrate to the same reaction system as that in the method for measuring glucosyltrehalose-producing activity employed in Example I-1.
(§2) Incidentally, each of the purified enzymes which were obtained in Examples I-3-I-5 and derived from the Sulfolobus solfataricus strain DSM 5833, the Sulfolobus acidocaldarius strain ATCC 33909, and the Acidianus brierleyi strain DSM 1651, respectively, was examined for enzymatic characteristics by using similar manner.

In test [5] the test system is transferase derived from the Acidianus brierleyi strain DSM 1651. Described as above. Type of test: biochemical. To be noted: 5 mM CuSO4. Here is the method:
as §1, §2

The subject of test [6] is transferase derived from the Sulfolobus solfataricus strain DSM 5833. The test is described as above. Type of test: biochemical. To be noted: 5 mM CuSO4. Here is the method:
as §1, §2

The test system of test [7] is amylase derived from the Sulfolobus solfataricus strain DSM 5833. In words: Inhibitor of amylase (maltotriosyltrehalose-hydrolyzing activity). Type of test: biochemical. To be noted: 5 mM CuSO4. On the procedure:
(§3) The influence of each substance listed in Table 15, such as an activating effect or inhibitory effect, was evaluated using similar activity-measuring method to that in Example II-1. Specifically, the listed substances were individually added together with the substrate to the same reaction system as that in the method for measuring maltotriosyltrehalose-hydrolyzing activity employed in Example II-1. […] As to the inhibitory effect by SDS, however, the enzymatic activity revived after SDS was removed by dialysis, ultrafiltration or the like.
(§4) Additionally, each of the purified enzymes obtained in Examples II-3 and II-4, i.e. derived from the Sulfolobus solfataricus strain DSM 5833 and the Sulfolobus acidocaldarius strain ATCC 33909, respectively, was also examined for the enzymatic characteristics in a similar manner.

Test [8] relates to amylase derived from the Sulfolobus acidocaldarius strain ATCC 33909. The test is described as above. Type of test: biochemical. To be noted: 5 mM CuSO4. On the procedure:
as §3, §4

Test [9] has as its system transferase derived from the Sulfolobus solfataricus strain KM1. In words: Substrate specificity of the transferase (production of α-1,α-1-transferred isomer). Type of test: biochemical. On the procedure: It was investigated whether or not the present enzyme acts on each of the substrates listed in Table 9 below to produce its α-1,α-1-transferred isomer. Here, the activity measurement was performed in the same manner as in Example I-1.

Test [10] has as its target T1, amylase derived from the Sulfolobus solfataricus strain KM1. In words: Substrate specificity of the purified amylase (hydrolyzing properties, TSK-gel Amide-80 HPLC). The test is classed as biochemical. Here is the method: The hydrolyzing properties were analyzed by allowing 25.0 Units/ml (in terms of the enzymatic activity when maltotriosyltrehalose is used as the substrate) of the present purified enzyme to act on the various 10 mM substrates (except amylopectin and soluble starch were used as 2.8% solutions) listed in Table 16 below, and the hydrolyzed products were also analyzed.
Incidentally, each enzymatic activity in Table 16 is expressed with such a unit as 1 Unit equals the activity of liberating 1 μmol of each of the monosaccharide and disaccharide per hour.

Test [11] concerns the target T2, recombinant novel amylase (Saccharolobus solfataricus, UniProt Q55088).
T2 sequence (Q55088 1-559): T1 sequence (Q55088 1-559)
In words: Substrate specificity of the recombinant novel amylase (crude enzyme solution).

With `O=S(=O)([O-])[O-].[Cu+2]` [CuSO4], the “Inhibitor, inhibited” value in test [1] (5 mM CuSO4), in test [2] (5 mM CuSO4), in [4], in test [5], in test [6] and in [7] was 100% inhibited each time. In test [8], the “Inhibitor, inhibited” value was 100% inhibited. Besides, the Residual activity in test [1] (Concentration 5 mM) turned out to be 0.0%; in test [2] (Concentration 5 mM), 0%; in [3] (Concentration 5 mM), 0.0%. Besides, the “Activating or inhibitory effect” value in test [1] (added with the substrate), in test [2] (added with the substrate) and in test [3] (added with the substrate) was “inhibitory effects” each time.
`OC[C@H]1O[C@H](OC[C@H]2O[C@H](OC[C@H]3O[C@H](OC[C@H]4O[C@H](OC[C@H]5OC(O)[C@H](O)[C@@H](O)[C@@H]5O)[C@H](O)[C@@H](O)[C@@H]4O)[C@H](O)[C@@H](O)[C@@H]3O)[C@H](O)[C@@H](O)[C@@H]2O)[C@H](O)[C@@H](O)[C@@H]1O` (some centres unmarked) [Isomaltopentaose]: the “Action of the enzyme on the substrate” value in test [9], in [10] and in [11] was “did not act” in each case. The Liberated oligosaccharide result in test [10] (25.0 Units/ml enzyme, 10 mM substrate (amylopectin and soluble starch 2.8%)) is recorded as “not decomposed”; in test [11] (35.2 Units/ml crude enzyme solution, 10 mM substrate (amylopectin and soluble starch 3.0%)), “not decomposed”. In addition, the “Production rate of mono- and disaccharides” value was found to be 0 units/ml in [10] (25.0 Units/ml enzyme, 10 mM substrate (amylopectin and soluble starch 2.8%), 1 Unit = 1 μmol per hour); 0 units/ml in [11] (35.2 Units/ml crude enzyme solution, 10 mM substrate (amylopectin and soluble starch 3.0%), 1 Unit = 1 μmol per hour).
